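How tested: cells in 96-well plates exposed to compound for 48 hours at five concentrations. GI50: concentration for 50% inhibition of growth.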 The source made the active and inactive calls. Cut-off read from the data, not from the text of the source: active = GI50 up to about 1.1 µM and inactive = higher.
Columns and labels:
Test in all cases: NCI-60 cell line screen, 48 h
OVCAR-4 = system: OVCAR-4
HOP-62 = system: HOP-62
NCI-H460 = system: NCI-H460
DMS-114 = system: DMS-114
NCI/ADR-RES = system: NCI/ADR-RES
SN12C = system: SN12C
XF498 = system: XF498
SK-MEL-2 = system: SK-MEL-2
HOP-92 = system: HOP-92
SW-620 = system: SW-620
RPMI-8226 = system: RPMI-8226
LOX IMVI = system: LOX IMVI
EKVX = system: EKVX
DMS-273 = system: DMS-273
OVCAR-8 = system: OVCAR-8
SR = system: SR
TK-10 = system: TK-10

For `C[C@H](N)C(=O)N[C@@H]1[C@H]2C(=C(O)C[C@@H](O)[C@@H]2O)C(=O)O[C@@H]1C`, the GI50 (OVCAR-4) was > 100 µM (inactive), the GI50 (HOP-62) was > 100 µM (inactive) and the GI50 (NCI-H460) was > 100 µM (inactive). For the same compound, the GI50 (DMS-114) was > 100 µM (inactive), the GI50 (NCI/ADR-RES) was > 100 µM (inactive) and the GI50 (SN12C) was > 100 µM (inactive). The GI50 (XF498) was > 82 µM (inactive), the GI50 (SK-MEL-2) was > 100 µM (inactive) and the GI50 (HOP-92) was > 100 µM (inactive). The GI50 (SW-620) was > 100 µM (inactive), the GI50 (RPMI-8226) was > 100 µM (inactive) and the GI50 (LOX IMVI) was > 100 µM (inactive). For the same compound, the GI50 (EKVX) was > 100 µM (inactive), the GI50 (DMS-273) was > 100 µM (inactive) and the GI50 (OVCAR-8) was > 100 µM (inactive).

In the case of `COc1cc(CNc2nc3c(NC(C)=O)cc(C(F)(F)F)cc3nc2-c2ccccc2)cc(OC)c1OC`, the GI50 (OVCAR-4) is reported as 89.5 µM (inactive), the GI50 (HOP-62) is reported as > 100 µM (inactive) and the GI50 (DMS-114) is reported as > 100 µM (inactive). The GI50 (SR) was > 100 µM (inactive), the GI50 (SN12C) was > 100 µM (inactive) and the GI50 (XF498) was 26.5 µM (inactive). For the same compound, the GI50 (SK-MEL-2) was > 100 µM (inactive), the GI50 (HOP-92) was 17.8 µM (inactive) and the GI50 (TK-10) was > 100 µM (inactive). The GI50 (SW-620) was > 100 µM (inactive), the GI50 (RPMI-8226) was > 100 µM (inactive) and the GI50 (LOX IMVI) was > 100 µM (inactive). For the same compound, the GI50 (EKVX) was > 100 µM (inactive), the GI50 (DMS-273) was > 100 µM (inactive) and the GI50 (OVCAR-8) was > 100 µM (inactive).

With `COC1=C(C)C(=O)C2=C(C1=O)[C@@H]1[C@@H]3Cc4c(OC(=O)CO)c(C)c(OC)c(O)c4[C@H](CNC(=O)C(C)=O)N3[C@@H](C#N)[C@H](C2)N1C` the GI50 (OVCAR-4) was 0.106 µM (active), the GI50 (HOP-62) was 0.221 µM (active) and the GI50 (NCI-H460) was 0.107 µM (active). The GI50 (DMS-114) was < 0.01 µM (active), the GI50 (NCI/ADR-RES) was 1.08 µM (active) and the GI50 (SN12C) was 0.013 µM (active). For the same compound, the GI50 (XF498) was < 0.01 µM (active), the GI50 (SK-MEL-2) was < 0.0189 µM (active) and the GI50 (HOP-92) was < 0.0119 µM (active). The GI50 (SW-620) was < 0.0164 µM (active), the GI50 (RPMI-8226) was < 0.0142 µM (active) and the GI50 (LOX IMVI) was < 0.01 µM (active). The GI50 (EKVX) was < 0.0405 µM (active), the GI50 (DMS-273) was 0.0189 µM (active) and the GI50 (OVCAR-8) was 0.024 µM (active).

`COC1=CC(C2c3cc4c(cc3[C@@H](Nc3ccc([N+](=O)[O-])cc3)C3COC(=O)[C@H]23)OCO4)=CC(=O)C1=O` (stereo partly specified) was tested, and the GI50 (OVCAR-4) was 59.3 µM (inactive), the GI50 (HOP-62) was 0.646 µM (active) and the GI50 (NCI-H460) was 0.277 µM (active). The GI50 (DMS-114) was 2.57 µM (inactive), the GI50 (SR) was 0.179 µM (active) and the GI50 (SN12C) was 2 µM (inactive). The GI50 (XF498) was 5.5 µM (inactive), the GI50 (SK-MEL-2) was 17 µM (inactive) and the GI50 (HOP-92) was 1.52 µM (inactive). For the same compound, the GI50 (TK-10) was 8.41 µM (inactive), the GI50 (SW-620) was 5.31 µM (inactive) and the GI50 (RPMI-8226) was 2.43 µM (inactive). The GI50 (LOX IMVI) was 2.15 µM (inactive), the GI50 (EKVX) was 7.57 µM (inactive) and the GI50 (DMS-273) was 0.697 µM (active). The GI50 (OVCAR-8) was 4.25 µM (inactive).

`C#CCNC(=O)CCC(N)C(=O)O` (stereo unspecified) was tested, and the GI50 (OVCAR-4) was > 100 µM (inactive), the GI50 (HOP-62) was > 100 µM (inactive) and the GI50 (NCI-H460) was > 100 µM (inactive). For the same compound, the GI50 (DMS-114) was > 100 µM (inactive), the GI50 (NCI/ADR-RES) was > 100 µM (inactive) and the GI50 (SN12C) was > 100 µM (inactive). The GI50 (XF498) was > 100 µM (inactive), the GI50 (SK-MEL-2) was > 100 µM (inactive) and the GI50 (HOP-92) was > 100 µM (inactive). For the same compound, the GI50 (SW-620) was > 100 µM (inactive), the GI50 (RPMI-8226) was > 100 µM (inactive) and the GI50 (LOX IMVI) was > 100 µM (inactive). For the same compound, the GI50 (EKVX) was > 100 µM (inactive), the GI50 (DMS-273) was > 100 µM (inactive) and the GI50 (OVCAR-8) was > 100 µM (inactive).
